This note sets out measurements from patent US20250228239A1, “MOLECULES HAVING PESTICIDAL UTILITY, AND INTERMEDIATES, COMPOSITIONS, AND PROCESSES, RELATED THERETO” (priority 2024, published 2025).

Read-outs that look alike come from different tables or passages of the source.

Holding throughout (type): in vivo
Data set [1] deals with Beet Armyworm (Spodoptera exigua, LAPHEG). Kind of data set: Bioassays on Beet Armyworm (BAW), 128-well diet tray assay. The settings on record: Spodoptera exigua; for mortality at 50 µg/cm2: 168 h, second instar larvae, 50 μg/cm^2 of test molecule on artificial diet, 25° C., five to seven days, average of eight wells, read-out: BAW % Control (or Mortality) rating. Summed up:
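One to five second-instar larvae per well on artificial diet surface-treated with 50 μg/cm^2 test molecule (applied in 90:10 acetone-water, dried), eight wells per compound. Trays held vented at 25° C., 14:10 light-dark for five to seven days; percent mortality averaged over the eight wells.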

The subject of data set [2] is Yellow Fever Mosquito (Aedes aegypti, AEDSAE). As to conditions: for YFM rating: Table ABC / ABC-DP rating; for YFM % Control (or Mortality) rating: about 1 day-old larvae, 4000 ppm master solution diluted with 90:10 water/acetone, 15 μL per well plus 220 μL larval mixture, 3 days. An outline of the steps: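 Compounds from DMSO master plates (4000 ppm stock) diluted in 90:10 water/acetone, then dispensed into six replicate plates and infested with ~1-day-old Aedes aegypti larvae in liver-powder water. Held covered at room temperature for 3 days; each well scored for larval mortality and graded on a rating scale.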

Data set [3] deals with Cabbage Looper (Trichoplusia ni, TRIPNI). Kind of data set: Bioassays on Cabbage Looper (CL), 128-well diet tray assay. As to conditions: Trichoplusia ni; for mortality at 50 µg/cm2: 168 h, second instar larvae, 50 μg/cm^2 of test molecule on artificial diet, 25° C., five to seven days, average of eight wells, read-out: CL % Control (or Mortality) rating. An outline of the steps: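 Test molecule was dissolved in 90:10 acetone-water, applied to artificial diet at 50 μg/cm^2 and allowed to dry. Second-instar larvae were then added, one to five per well, and trays held at 25° C for five to seven days before mortality was scored and averaged.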

[4] abbreviates: Beet Armyworm, Table ABC / ABC-DP rating, read-out: BAW rating.
[5] abbreviates: Cabbage Looper, Table ABC / ABC-DP rating, read-out: CL rating.
The mark [6] stands for this setting: Beet Armyworm, rating class, read-out: BAW.
The mark [7] stands for this setting: Yellow Fever Mosquito, rating class.
The mark [8] stands for this setting: Cabbage Looper, rating class, read-out: CL.
The mark [9] stands for this setting: Table ABC: Biological Results, species BAW, read-out: BAW.
Setting [10] is: Table ABC: Biological Results, species YFM.
Setting [11] is: Table ABC: Biological Results, species CL, read-out: CL.

As usually defined, the mortality is the share of the test organisms that died. For `Cc1cc(NC(=O)OC(C)(C)C)ccc1NC(=O)c1cc(NC(=O)[C@H]2[C@H](c3cc(Cl)cc(Cl)c3)C2(Cl)Cl)ccc1Cl` (relative stereo) [DP10, trans-tert-butyl-(4-(2-chloro-5-(2,2-dichloro-3-(3,5-dichlorophenyl)cyclopropane-1-carboxamido)benzamido)-3-methylphenyl)carbamate], the mortality at 50 µg/cm2 in data set [1] and in data set [3] was 50 to 100% each time. In addition, the pest or weed control at 50 µg/cm2 in data set [1] (setting [4]) and in data set [3] (setting [5]) was 50 to 100% each time. Besides, the YFM rating entry in data set [2] (Yellow Fever Mosquito) is listed as “A (80–100)”. Moreover, the “YFM % Control (or Mortality) rating” value in data set [2] is “A (80–100)”.
As for `O=C(Nc1ccc(F)c(NC(=O)C(F)(F)C(F)(F)C(F)(F)F)c1F)c1cc(NC(=O)[C@H]2[C@H](c3ccc(F)c(C(F)(F)F)c3)C2(Cl)Cl)ccc1Cl` [F1450, 2-Chloro-5-((1R,3R)-2,2-dichloro-3-(4-fluoro-3-(trifluoromethyl)phenyl)cyclopropane-1-carboxamido)-N-(2,4-difluoro-3-(2,2,3,3,4,4,4-heptafluorobutanamido)phenyl)benzamide], the pest or weed control at 50 µg/cm2 in data set [1] (setting [6]) and in data set [3] (setting [8]) was 50 to 100% each time. Moreover, the YFM result in data set [2] (setting [7]) is “A (80–100)”.
Consider `CO[C@@H](C)C(=O)Nc1c(F)ccc(NC(=O)c2cc(NC(=O)[C@H]3[C@H](c4ccc(F)c(C(F)(F)F)c4)C3(Cl)Cl)ccc2Cl)c1F` [F1720, 2-Chloro-5-((1R,3R)-2,2-dichloro-3-(4-fluoro-3-(trifluoromethyl)phenyl)cyclopropane-1-carboxamido)-N-(2,4-difluoro-3-((S)-2-methoxypropanamido)phenyl)benzamide], for which the pest or weed control at 50 µg/cm2 in data set [1] (setting [6]) and in data set [3] (setting [8]) was 50 to 100% throughout. Moreover, the YFM entry in data set [2] (setting [7]) is reported as “A (80–100)”.
With `Cc1c(Cl)cc(NC(=O)[C@H]2[C@H](c3ccc(F)c(Cl)c3)C2(Cl)Cl)cc1C(=O)NCCCCl` (relative stereo) [F2044, trans-3-Chloro-N-(3-chloropropyl)-5-(2,2-dichloro-3-(3-chloro-4-fluorophenyl)cyclopropane-1-carboxamido)-2-methylbenzamide], the pest or weed control at 50 µg/cm2 in data set [1] (setting [4]) and in data set [3] (setting [5]) was 50 to 100% each time. The YFM rating result in data set [2] (Yellow Fever Mosquito) is “A (80–100)”.
For the compound `COCCNc1ccc(NC(=O)c2cc(NC(=O)[C@H]3[C@H](c4cc(Cl)cc(Cl)c4)C3(Cl)Cl)ccc2Cl)c(C)c1` (relative stereo) [F1162, trans-2-Chloro-5-(2,2-dichloro-3-(3,5-dichlorophenyl)cyclopropane-1-carboxamido)-N-(4-((2-methoxyethyl)amino)-2-methylphenyl)benzamide], the pest or weed control at 50 µg/cm2 in data set [1] (setting [9]) and in data set [3] (setting [11]) was 50 to 100% throughout. For the same compound, in data set [2] (setting [10]), the YFM entry is listed as “A (80–100)”.
For `O=C(NNC(=S)Nc1ccccc1)c1cc(NC(=O)[C@H]2[C@H](c3cc(Cl)cc(Cl)c3)C2(Cl)Cl)ccc1Cl` (relative stereo) [F2541, trans-2,2-Dichloro-N-(4-chloro-3-(2-(phenylcarbamothioyl)hydrazine-1-carbonyl)phenyl)-3-(3,5-dichlorophenyl)cyclopropane-1-carboxamide], the pest or weed control at 50 µg/cm2 in data set [1] (setting [4]) and in data set [3] (setting [5]) was 50 to 100% in each case. For the same compound, in data set [2] (Yellow Fever Mosquito), the YFM rating entry is reported as “A (80–100)”.
Turning to `CC(Cl)CC(=O)Nc1c(F)ccc(NC(=O)c2cc(NC(=O)[C@H]3[C@H](c4ccc(F)c(C(F)(F)F)c4)C3(Cl)Cl)ccc2Cl)c1F` (stereo partly drawn) [F1669, 2-Chloro-N-(3-(3-chlorobutanamido)-2,4-difluorophenyl)-5-((1R,3R)-2,2-dichloro-3-(4-fluoro-3-(trifluoromethyl)phenyl)cyclopropane-1-carboxamido)benzamide], the pest or weed control at 50 µg/cm2 in data set [1] (setting [6]) and in data set [3] (setting [8]) was 50 to 100% in each case. Further, in data set [2] (setting [7]), the YFM result was “A (80–100)”.
In the case of `O=C(Nc1ccc(F)c(Br)c1)c1cc(NC(=O)[C@H]2[C@H](c3cc(Cl)cc(Cl)c3)C2(Cl)Cl)ccc1Cl` (relative stereo) [F1304, trans-N-(3-bromo-4-fluorophenyl)-2-chloro-5-(2,2-dichloro-3-(3,5-dichlorophenyl)cyclopropane-1-carboxamido)benzamide], the pest or weed control at 50 µg/cm2 in data set [1] (setting [9]) and in data set [3] (setting [11]) was 50 to 100% throughout. The YFM result in data set [2] (setting [10]) was “A (80–100)”.
Consider `CN(NC(=O)c1cc(NC(=O)[C@H]2[C@H](c3cc(Cl)c(Cl)c(Cl)c3)C2(Cl)Cl)ccc1Cl)c1ccccc1` [F2511, (1R,3R)-2,2-Dichloro-N-(4-chloro-3-(2-methyl-2-phenylhydrazine-1-carbonyl)phenyl)-3-(3,4,5-trichlorophenyl)cyclopropane-1-carboxamide], for which the pest or weed control at 50 µg/cm2 in data set [1] (setting [4]) and in data set [3] (setting [5]) was 50 to 100% throughout. Further, the YFM rating result in data set [2] (Yellow Fever Mosquito) was “A (80–100)”.
With `C=C(F)c1cc(NC(=O)c2cc(NC(=O)[C@H]3[C@H](c4cc(Cl)cc(Cl)c4)C3(Cl)Cl)ccc2Cl)ccc1F` (relative stereo) [F1318, trans-2-Chloro-5-(2,2-dichloro-3-(3,5-dichlorophenyl)cyclopropane-1-carboxamido)-N-(4-fluoro-3-(1-fluorovinyl)phenyl)benzamide], the pest or weed control at 50 µg/cm2 in data set [1] (setting [9]) and in data set [3] (setting [11]) was 50 to 100% in each case. Moreover, the YFM result in data set [2] (setting [10]) is on record as “A (80–100)”.
Take `O=C(Nc1ccc(F)cc1F)c1cc(NC(=O)[C@H]2[C@H](c3cc(Cl)cc(S(F)(F)(F)(F)F)c3)C2(Cl)Cl)ccc1Cl` (relative stereo) [F1232, trans-2-chloro-5-(2,2-dichloro-3-(3-chloro-5-(pentafluoro-λ^6-sulfanyl)phenyl)cyclopropane-1-carboxamido)-N-(2,4-difluorophenyl)benzamide]: the pest or weed control at 50 µg/cm2 in data set [1] (setting [9]) and in data set [3] (setting [11]) was 50 to 100% throughout. Further, in data set [2] (setting [10]), the YFM result is on record as “A (80–100)”.
With `O=C(Nc1ccccc1)c1cc(NC(=O)[C@H]2[C@H](c3ccc(F)c(C(F)(F)F)c3)C2(Cl)Cl)c(F)cc1Cl` [F1723, 2-Chloro-5-((1R,3R)-2,2-dichloro-3-(4-fluoro-3-(trifluoromethyl)phenyl)cyclopropane-1-carboxamido)-4-fluoro-N-phenylbenzamide], the pest or weed control at 50 µg/cm2 in data set [1] (setting [6]) and in data set [3] (setting [8]) was 50 to 100% each time. Besides, the YFM result in data set [2] (setting [7]) is “A (80–100)”.
Turning to `Cl.NNC(=O)c1cc(NC(=O)[C@H]2[C@H](c3cc(Cl)cc(Cl)c3)C2(Cl)Cl)ccc1Cl` (relative stereo) [F2567, trans-2,2-dichloro-N-(4-chloro-3-(hydrazinecarbonyl)phenyl)-3-(3,5-dichlorophenyl)cyclopropane-1-carboxamide hydrochloride], the mortality at 50 µg/cm2 in data set [1] and in data set [3] was 50 to 100% each time. Also, the pest or weed control at 50 µg/cm2 in data set [1] (setting [4]) and in data set [3] (setting [5]) was 50 to 100% throughout. Besides, the YFM rating entry in data set [2] (Yellow Fever Mosquito) was “A (80–100)”. Moreover, the “YFM % Control (or Mortality) rating” value in data set [2] is on record as “A (80–100)”.
On to `O=C(CCC1CC1)Nc1c(F)ccc(NC(=O)c2cc(NC(=O)[C@H]3[C@H](c4ccc(F)c(C(F)(F)F)c4)C3(Cl)Cl)ccc2Cl)c1F` [F1854, 2-Chloro-N-(3-(3-cyclopropylpropanamido)-2,4-difluorophenyl)-5-((1R,3R)-2,2-dichloro-3-(4-fluoro-3-(trifluoromethyl)phenyl)cyclopropane-1-carboxamido)benzamide], for which the pest or weed control at 50 µg/cm2 in data set [1] (setting [4]) and in data set [3] (setting [5]) was 50 to 100% in each case. Moreover, the YFM rating result in data set [2] (Yellow Fever Mosquito) was “A (80–100)”.
